Experimental data: publication PMC5296932 (Angewandte Chemie (International ed. in English), 2016)
Starred links: 1 amine or outer side, 2 acyl side, 3 side chain; linkers in the order of their positions; H or OH if unused. Positions of bridges follow the written chain, without caps; N, C: chain ends. Non-standard residues stand in square brackets, D forms with d. Residues, ends and D or L forms follow the SMILES beside them. X1 = O=C(c1cc(CS[*:2])cc(CS[*:3])c1)[*:1]; 2Nal = N[C@@H](Cc1ccc2ccccc2c1)C(=O)O; Mpa = O=C(O)CCS

Columns and labels:
[1] = Proteolytic stability in human serum; format: in vitro ADME
[2] = In vitro reduction of disulfide bonds by glutathione; format: physicochemical; details: 5 mM glutathione, 2 h

Row | SMILES | half-life in human serum [1] | reduction of the disulfide bonds [2] | half-life ([1]; human serum)
1 | CC(C)C[C@@H]1NC(=O)[C@H](C)NC(=O)[C@@H]2CSSCc3cc(cc(c3)C(=O)N[C@@H](CCCNC(=N)N)C(=O)N[C@@H](CCCNC(=N)N)C(=O)N[C@@H](CCCNC(=N)N)C(=O)N[C@@H](CCCNC(=N)N)C(=O)N[C@@H](Cc3ccc4ccccc4c3)C(=O)N[C@@H](Cc3ccccc3)C(=O)N2)CSSC[C@@H](C(N)=O)NC(=O)[C@H](CCC(N)=O)NC(=O)[C@H](CC(C)C)NC(=O)[C@H](Cc2c[nH]c3ccccc23)NC(=O)[C@H](CO)NC(=O)[C@H](Cc2c[nH]c3ccccc23)NC(=O)[C@H](CC(=O)O)NC1=O [Peptide 4] (RRRR[2Nal]FCALDWSWLQC-NH2; linker N-7-16 via X1) | ~ 10 h | completely reduced | 
2 | CC(C)C[C@H](NC(=O)[C@H](C)NC(=O)[C@@H]1CSSCCC(=O)N[C@@H](CCCNC(=N)N)C(=O)N[C@@H](CCCNC(=N)N)C(=O)N[C@@H](CCCNC(=N)N)C(=O)N[C@@H](CCCNC(=N)N)C(=O)N[C@@H](Cc2ccc3ccccc3c2)C(=O)N[C@@H](Cc2ccccc2)C(=O)N1)C(=O)N[C@@H](CC(=O)O)C(=O)N[C@@H](Cc1c[nH]c2ccccc12)C(=O)N[C@@H](CO)C(=O)N[C@@H](Cc1c[nH]c2ccccc12)C(=O)N[C@@H](CC(C)C)C(=O)N[C@@H](CCC(N)=O)C(=O)N[C@H](C(N)=O)[C@@H](C)O [Peptide 6] ([Mpa]RRRR[2Nal]FCALDWSWLQT-NH2; disulfide 1-8; C-terminus assumed) |  |  | ~30 min
